# According to US10131659B2, “Iodonium analogs as inhibitors of NADPH oxidases and other flavin dehydrogenases; formulations thereof; and uses thereof” (priority 2014, dated 2018):
# Read-outs that look alike come from different tables or passages of the source.
# Experiments:
# [1] = tested on: HT-29 human colon cancer cells; test: Clonogenic assay, HT-29 cells; assay type: cell-based
# Method: Several iodonium analog compounds were analyzed for inhibition of HT-29 growth using a clonogenic assay performed as described in Doroshow et al Biochem. Biophys. Res. Commun. 135: 330-335, 1986.
# NOX2 = target: T1, NOX2 (Homo sapiens, UniProt P04839); test: NOX2-dependent ROS production, luminescence assay for O2.- in differentiated HL-60 cells; assay type: cell-based; conditions: exposure for 30 min
# T1 construct: fully differentiated HL-60 cells expressing active NOX2; endogenous in cells; host or cells: differentiated HL-60
# NOX4 = target: T2, NOX4 (Homo sapiens, UniProt Q9NPH5); test: NOX4-dependent H2O2 production, Amplex Red assay in reconstituted HEK293 cells; assay type: cell-based; conditions: for IC50 / IC50 toward NOX4: exposure for 30 min
# T2 construct: expressed in transfected cells; host or cells: HEK293
# T2 sequence (Q9NPH5 1-578): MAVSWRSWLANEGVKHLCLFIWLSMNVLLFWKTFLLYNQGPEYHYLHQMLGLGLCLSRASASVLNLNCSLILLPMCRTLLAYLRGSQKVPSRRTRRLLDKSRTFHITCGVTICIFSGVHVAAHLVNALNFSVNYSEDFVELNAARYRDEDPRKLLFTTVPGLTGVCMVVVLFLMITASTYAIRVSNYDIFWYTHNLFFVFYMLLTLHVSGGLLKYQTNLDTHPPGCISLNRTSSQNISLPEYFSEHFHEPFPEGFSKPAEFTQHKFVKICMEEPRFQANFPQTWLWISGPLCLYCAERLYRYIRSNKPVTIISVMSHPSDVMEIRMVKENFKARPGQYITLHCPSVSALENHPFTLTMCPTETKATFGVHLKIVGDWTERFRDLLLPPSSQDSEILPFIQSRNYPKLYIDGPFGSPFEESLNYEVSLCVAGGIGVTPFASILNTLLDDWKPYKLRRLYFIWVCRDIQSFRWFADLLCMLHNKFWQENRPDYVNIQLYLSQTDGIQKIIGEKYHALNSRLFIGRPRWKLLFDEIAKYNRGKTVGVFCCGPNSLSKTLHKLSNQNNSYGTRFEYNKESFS
# T2 sequence (P13498 2-195 partner limits assumed): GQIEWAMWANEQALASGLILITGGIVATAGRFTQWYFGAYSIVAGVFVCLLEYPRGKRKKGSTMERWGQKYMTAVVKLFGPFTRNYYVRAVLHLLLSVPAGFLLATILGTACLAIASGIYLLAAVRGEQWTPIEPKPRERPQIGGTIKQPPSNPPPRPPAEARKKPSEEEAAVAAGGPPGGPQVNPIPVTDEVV
# Method: (§1) H2O2 was measured by Amplex Red assay to determine NOX4 or Duox2 activity in fully reconstituted HEK293 cells. The method conducted was similar to the approach disclosed in Jaquet et al in Brit J. Pharmacology 164: 507-520, 2011 using somewhat different cell models for the NOX isoforms and we studied Duox2 in our own cell model.
# NOX1/A1/O1 = target: T3, NOX1/A1/O1 (Homo sapiens, UniProt Q9Y5S8); test: NOX1-dependent ROS production, luminescence assay for O2.- in HEK293 cells expressing the NOX1 complex; assay type: cell-based; conditions: for IC50 / IC50 toward NOX1: exposure for 30 min
# T3 construct: expressed in transfected cells; host or cells: HEK293
# NOX5 = target: T4, NOX5 (Homo sapiens, UniProt Q96PH1); test: NOX5-dependent ROS production, luminescence assay for O2.- in UACC257 melanoma cells; assay type: cell-based; conditions: exposure for 30 min
# T4 sequence (Q96PH1 1-765): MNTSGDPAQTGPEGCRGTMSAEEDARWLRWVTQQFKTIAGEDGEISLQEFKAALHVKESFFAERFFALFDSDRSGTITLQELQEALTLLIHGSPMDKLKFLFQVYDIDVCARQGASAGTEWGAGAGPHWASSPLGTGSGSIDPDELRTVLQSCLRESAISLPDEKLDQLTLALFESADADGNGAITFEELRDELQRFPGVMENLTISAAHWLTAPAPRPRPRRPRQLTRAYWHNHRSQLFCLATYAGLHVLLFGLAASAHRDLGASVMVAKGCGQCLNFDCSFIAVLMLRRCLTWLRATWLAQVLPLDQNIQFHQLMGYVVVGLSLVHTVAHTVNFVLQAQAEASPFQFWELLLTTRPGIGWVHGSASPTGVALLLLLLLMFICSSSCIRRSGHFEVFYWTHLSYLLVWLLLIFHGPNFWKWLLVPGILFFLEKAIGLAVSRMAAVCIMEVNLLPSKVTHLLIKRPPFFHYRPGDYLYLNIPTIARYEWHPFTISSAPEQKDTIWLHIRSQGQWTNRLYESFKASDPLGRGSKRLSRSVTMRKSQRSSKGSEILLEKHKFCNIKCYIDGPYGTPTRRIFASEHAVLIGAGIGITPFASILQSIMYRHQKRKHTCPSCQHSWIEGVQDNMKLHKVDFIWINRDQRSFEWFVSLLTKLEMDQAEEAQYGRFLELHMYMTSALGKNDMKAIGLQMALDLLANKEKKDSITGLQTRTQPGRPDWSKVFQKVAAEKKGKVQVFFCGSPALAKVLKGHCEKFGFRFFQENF
# DUOX2/A2 = DUOX2/A2 (Homo sapiens, UniProt Q9NRD8); test: DUOX2-dependent H2O2 production, Amplex Red assay in reconstituted HEK293 cells; assay type: cell-based
# Sequence of DUOX2/A2 (Q9NRD8 26-1548): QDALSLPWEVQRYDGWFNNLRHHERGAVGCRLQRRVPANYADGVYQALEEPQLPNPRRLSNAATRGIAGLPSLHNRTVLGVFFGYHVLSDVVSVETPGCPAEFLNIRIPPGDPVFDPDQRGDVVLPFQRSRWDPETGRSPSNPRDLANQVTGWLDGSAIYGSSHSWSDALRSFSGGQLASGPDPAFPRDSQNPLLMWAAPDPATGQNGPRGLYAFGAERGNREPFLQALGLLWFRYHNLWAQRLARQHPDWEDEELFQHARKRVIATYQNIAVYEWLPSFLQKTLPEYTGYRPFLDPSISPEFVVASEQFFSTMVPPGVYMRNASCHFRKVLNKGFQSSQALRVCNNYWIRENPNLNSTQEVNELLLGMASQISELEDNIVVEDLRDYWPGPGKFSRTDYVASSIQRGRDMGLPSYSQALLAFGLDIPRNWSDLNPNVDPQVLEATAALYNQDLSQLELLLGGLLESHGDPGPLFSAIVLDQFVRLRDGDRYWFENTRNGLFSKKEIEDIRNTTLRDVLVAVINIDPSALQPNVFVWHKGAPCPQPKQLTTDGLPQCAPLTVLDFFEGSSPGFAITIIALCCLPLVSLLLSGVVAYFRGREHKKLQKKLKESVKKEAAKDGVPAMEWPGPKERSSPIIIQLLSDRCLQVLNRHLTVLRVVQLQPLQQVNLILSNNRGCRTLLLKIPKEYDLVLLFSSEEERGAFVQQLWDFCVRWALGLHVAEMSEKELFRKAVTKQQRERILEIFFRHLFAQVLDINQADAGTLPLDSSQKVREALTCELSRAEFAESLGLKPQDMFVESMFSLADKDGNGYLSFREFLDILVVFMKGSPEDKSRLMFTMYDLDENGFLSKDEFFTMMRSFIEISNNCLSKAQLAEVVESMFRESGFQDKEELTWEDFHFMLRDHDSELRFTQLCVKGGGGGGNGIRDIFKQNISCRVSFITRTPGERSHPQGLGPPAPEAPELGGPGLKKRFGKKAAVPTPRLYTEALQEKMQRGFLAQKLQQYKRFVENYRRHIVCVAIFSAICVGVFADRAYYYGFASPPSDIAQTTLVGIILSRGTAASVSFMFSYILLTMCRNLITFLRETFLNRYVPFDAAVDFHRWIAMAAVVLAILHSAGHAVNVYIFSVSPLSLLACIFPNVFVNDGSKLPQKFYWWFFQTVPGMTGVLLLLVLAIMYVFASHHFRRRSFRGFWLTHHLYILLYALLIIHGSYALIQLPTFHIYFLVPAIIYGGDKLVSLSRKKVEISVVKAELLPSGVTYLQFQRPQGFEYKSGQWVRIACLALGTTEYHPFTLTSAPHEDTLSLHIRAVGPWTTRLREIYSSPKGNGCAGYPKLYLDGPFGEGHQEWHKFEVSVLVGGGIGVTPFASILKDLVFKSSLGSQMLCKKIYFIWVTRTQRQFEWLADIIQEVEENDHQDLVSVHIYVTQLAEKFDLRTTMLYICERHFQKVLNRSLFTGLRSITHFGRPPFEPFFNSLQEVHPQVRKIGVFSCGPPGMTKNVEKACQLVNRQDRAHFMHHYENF
# Sequence of DUOX2/A2 (Q1HG44 whole entry partner): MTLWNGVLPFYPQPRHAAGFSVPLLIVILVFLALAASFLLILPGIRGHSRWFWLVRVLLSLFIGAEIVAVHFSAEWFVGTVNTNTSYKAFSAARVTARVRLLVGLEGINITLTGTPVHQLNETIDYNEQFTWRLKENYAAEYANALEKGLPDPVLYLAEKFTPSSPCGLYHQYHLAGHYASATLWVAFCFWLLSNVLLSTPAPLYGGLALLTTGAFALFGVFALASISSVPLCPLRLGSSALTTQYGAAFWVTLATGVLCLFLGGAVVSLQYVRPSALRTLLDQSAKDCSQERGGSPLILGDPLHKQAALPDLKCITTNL
# Method: as §1
# [2] = tested on: HT-29 human colon cancer cells; test: Growth inhibition of HT-29 cells by MTT assay; assay type: cell-based; conditions: for IC50: read-out: IC50, HT-29 human colon cancer cell growth
# Method: The compounds were analyzed for growth inhibition of HT-29 human colon cancer cells by MTT assay: 48 hr, drug exposures over several orders of concentration. The MTT assay was performed as described in Wu et al J. Immunology 190: 1859-1872, 2013.
# [3] = tested on: NOX1, NOX2, NOX4, NOX5, and DUOX2; test: Screening for NADPH oxidase isoform specificity in cellular models (all isoforms); assay type: cell-based, human
# Method: as §1, with “To evaluate compound specificity, a luminescence assay for O2.^− was used with HEK293 cells expressing all components of the NOX1 complex; fully differentiated HL-60 cells expressing active NOX2; and UACC257 melanoma cells that exclusively express active NOX5. H2O2” for “H2O2”
# [4] = tested on: ROS production in HT-29 human colon cancer cells; test: ROS production in HT-29 cells (chemiluminescence / DCF analytical cytometry); assay type: cell-based
# [5] = tested on: HT-29 human colon cancer cells; test: HT-29 cell cycle progression; assay type: cell-based; conditions: for G1 (%) / G2 (%) / S phase (%): 24 hours
# Method: Several iodonium analog compounds were analyzed for effect on HT-29 cell cycle progression.
# NOX1 mRNA expression = test: NOX1 expression in HT-29 cells by quantitative RT-PCR; assay type: cell-based; conditions: HT-29 human colon cancer cells
# [6] = Homo sapiens, HT-29, 6 h, read-out: IC50 (±SE) clonogenic survival, 6 hrs drug exposure, 6 hrs exposure
# [7] = 3-5 independent experiments, read-out: IC50 ± SE, NOX2 HL-60
# [8] = 3-5 independent experiments, read-out: IC50 ± SE, NOX4 HEK293
# [9] = 3-5 independent experiments, read-out: IC50 ± SE, NOX1/A1/O1 HEK 293
# [10] = 3-5 independent experiments, read-out: IC50 ± SE, NOX5 UACC-257
# [11] = 3-5 independent experiments, read-out: IC50 ± SE, DUOX2/A2 HEK 293
# [12] = Homo sapiens, HT-29, 2 h, read-out: IC50 (±SE) clonogenic survival, 2 hrs drug exposure, 2 hrs exposure
# [13] = Homo sapiens, HT-29, 240 h, read-out: IC50 clonogenic survival, 10 days drug exposure, 10 days exposure
SMILES,"IC50 [1, 6] [nM]",IC50 (NOX2; [7]) [nM],IC50 (NOX4; [8]) [µM],IC50 (NOX1/A1/O1; [9]) [nM],IC50 (NOX5; [10]) [nM],IC50 toward NOX2 (NOX2),IC50 toward NOX4 (NOX4),IC50 toward NOX1 (NOX1/A1/O1),IC50 toward NOX5 (NOX5),IC50 (DUOX2/A2; [11]) [nM],"IC50 ([2]; Homo sapiens, HT-29, 48 h) [nM]",also measured
"[Cl-].c1csc([I+]c2cccs2)c1 [Compound 1, di-2-thienyliodonium chloride, reference compound]",113000 ± 92300,1500 ± 1110,32.3 ± 13.8,3410 ± 1600,3780 ± 2140,–,–,–,–,–,–,"IC50 clonogenic survival, 2 hrs drug exposure (result in words) ([1]; 2 hrs exposure): No Inhibition"
"O=[N+]([O-])c1cccc2c1-c1c(cccc1[N+](=O)[O-])[I+]2.[Br-] [Compound 49, 1,9-dinitrodibenzo[b,d]iodolium bromide]",–,–,–,–,–,much higher,much higher,much higher,submicromolar,–,–,"IC50 (DUOX2/A2): 773 ± 362 nM; inhibition of DUOX2, as worded in text (DUOX2/A2): submicromolar; potency for inhibition of DUOX2 compared with parent compound (DPI) (DUOX2/A2): at least a log more potent; Growth inhibition of NOX1-containing colon cancer cells versus the other analogs ([2]; even at higher concentrations): much less; IC50 (NOX2; IC50 ± SE, NOX2 HL-60, 3-5 independent experiments): 1470 ± 308 nM; IC50 (NOX4; IC50 ± SE, NOX4 HEK293, 3-5 independent experiments): 5.53 ± 2.68 µM; IC50 (NOX1/A1/O1; IC50 ± SE, NOX1/A1/O1 HEK 293, 3-5 independent experiments): 1020 ± 361 nM; IC50 (NOX5; IC50 ± SE, NOX5 UACC-257, 3-5 independent experiments): 229 ± 123 nM"
"O=S(=O)([O-])C(F)(F)F.c1csc([I+]c2cccs2)c1 [Compound 3, di-2-thienyliodonium triflate]",–,1490 ± 646,29.7 ± 41.5,2220 ± 1210,1200 ± 1120,–,–,–,–,–,–,"IC50 clonogenic survival, 2 hrs drug exposure (result in words) ([1]; 2 hrs exposure): No Inhibition; IC50 ([1]; Homo sapiens, HT-29, read-out: IC50 (±SE) clonogenic survival, 6 hrs drug exposure, 6 hrs exposure): 91200 ± 58800 nM; potency compared with parent molecule (DTI) [3]: more potent than its parent molecule"
"COC(=O)c1ccc2c(c1)[I+]c1ccccc1-2.Cc1ccc(S(=O)(=O)[O-])cc1 [Compound 21, Dibenz[b,d]iodolium, 3-(methoxycarbonyl)-, salt with 4-methyl-benzenesulfonic acid (1:1)]",–,71 ± 15,0.127 ± 0.11,249 ± 116,55 ± 20,low nM,low nM,low nM,low nM,1990 ± 1690,–,"IC50 ([1]; read-out: IC50 (±SE) clonogenic survival, 2 hrs drug exposure, 2 hrs exposure): ~7000 nM; IC50 ([1]; read-out: IC50 (±SE) clonogenic survival, 6 hrs drug exposure, 6 hrs exposure): 1300 ± 300 nM; IC50 ([2]; 48 hr drug exposure): 148 nM; ROS production in HT-29 cells ([4]; treatment for 24 hr with 10 nM): significantly decreased; potency as inhibitor of NOX4 compared with DPI (NOX4): more potent"
"O=[N+]([O-])c1ccc2c(c1)[I+]c1cc([N+](=O)[O-])ccc1-2.[Br-] [Compound 15, Dibenziodolium, 3,7-dinitro-, bromide]",116 ± 108,310 ± 53,0.139 ± 0.143,357 ± 268,208 ± 129,low nM,low nM,low nM,low nM,225 ± 24,202,"potency for inhibition of DUOX2 compared with parent compound (DPI) (DUOX2/A2): at least a log more potent; cytotoxic or cytostatic character [1]: cytotoxic; exposure required to inhibit growth / cell reproduction [1]: only a short exposure at nM concentrations; IC50 [1, 12]: 180 ± 157 nM; IC50 [1, 13]: < 10 nM; ROS production in HT-29 cells ([4]; treatment for 24 hr with 100 nM): significantly decreased; effect on cell cycle progression [5]: major block in cell cycle progression in S and G2 phases; G1 (%) ([5]; 250 nM): 23.9%; G2 (%) ([5]; 250 nM): 47.4%; S phase (%) ([5]; 250 nM): 28.7%; G1 (%) ([5]; 500 nM): 16.6%; G2 (%) ([5]; 500 nM): 25.2%; S phase (%) ([5]; 500 nM): 58.2%"
"CN(C)Cc1ccc2c(c1)[I+]c1cc(CN(C)C)ccc1-2.[I-] [Compound 24, Dibenziodolium, 3,7-bis[(dimethylamino)methyl]-, iodide]",–,4380 ± 999,35.4 ± 42.7,2520 ± 2410,2090 ± 903,–,–,–,–,–,87,inhibition of ROS production ([4]; HT-29 human colon cancer cells): no significant inhibition; inhibition of NOX1 expression (NOX1 mRNA expression): no significant inhibition
"Brc1ccc2c(c1)[I+]c1cc(Br)ccc1-2.[Br-] [Compound 16, Dibenziodolium, 3,7-dibromo-, bromide]",536 ± 635,127 ± 20,0.161 ± 0.153,70 ± 57,44 ± 21,low nM,low nM,low nM,low nM,4140 ± 1720,50,"exposure required to inhibit growth / cell reproduction [1]: intermediate; IC50 [1, 12]: 1200 ± 1100 nM; IC50 [1, 13]: < 10 nM; ROS production in HT-29 cells ([4]; treatment for 24 hr with 10 nM): significantly decreased; potency as inhibitor of NOX1 compared with DPI (NOX1/A1/O1): more potent; G1 (%) ([5]; 250 nM): 64.5%; G2 (%) ([5]; 250 nM): 7.9%; S phase (%) ([5]; 250 nM): 28.1%; G1 (%) ([5]; 500 nM): 57.2%; G2 (%) ([5]; 500 nM): 6.5%; S phase (%) ([5]; 500 nM): 36.2%"
